Drawing on ChEMBL document CHEMBL4024787, “Target Identification and Mode of Action of Four Chemically Divergent Drugs against Ebolavirus Infection” (J Med Chem, 2018), this text covers ΔTm, IC50 and Kd for five compounds.

pIC50, pKd: −log10 of the molar value.

In assay [1] the target is T1, Envelope glycoprotein (Zaire ebolavirus (strain Mayinga-76) (ZEBOV) (Zaire Ebola virus)) (UniProt Q05320).
T1 sequence (whole entry): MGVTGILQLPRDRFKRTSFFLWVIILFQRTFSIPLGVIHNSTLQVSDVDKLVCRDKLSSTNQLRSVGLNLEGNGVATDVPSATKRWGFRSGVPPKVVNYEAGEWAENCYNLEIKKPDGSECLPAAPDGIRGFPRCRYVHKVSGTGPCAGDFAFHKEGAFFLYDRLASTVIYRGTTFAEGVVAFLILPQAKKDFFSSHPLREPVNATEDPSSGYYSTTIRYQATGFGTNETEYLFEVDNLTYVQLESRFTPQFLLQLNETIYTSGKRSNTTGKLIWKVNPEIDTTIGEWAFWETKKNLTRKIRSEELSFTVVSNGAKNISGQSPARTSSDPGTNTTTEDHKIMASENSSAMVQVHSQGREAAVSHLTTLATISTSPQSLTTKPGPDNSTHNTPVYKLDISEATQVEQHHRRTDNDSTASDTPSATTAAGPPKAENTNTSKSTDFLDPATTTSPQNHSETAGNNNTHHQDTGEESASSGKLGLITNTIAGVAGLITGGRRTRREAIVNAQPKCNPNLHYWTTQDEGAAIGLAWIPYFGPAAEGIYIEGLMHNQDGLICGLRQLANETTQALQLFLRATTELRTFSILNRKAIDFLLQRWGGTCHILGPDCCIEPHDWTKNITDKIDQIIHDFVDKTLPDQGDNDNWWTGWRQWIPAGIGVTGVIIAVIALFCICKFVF
In words: Binding affinity to Ebola virus Zaire Mayinga-76 recombinant GP protein assessed as change in melting temperature at 500 uM by SYPRO orange dye-based fluorescence assay. The following applies: 1976.

In assay [2] the test system is Ebolavirus. Nature of the assay: microbe, parasite or virus in culture. Type of assay: functional, cell-based. The following applies: Orthoebolavirus, HepG2, 48 h.
The subject of assay [3] is Ebolavirus. Nature of the assay: microbe, parasite or virus in culture. It counts as functional. The following applies: Orthoebolavirus, Vero C1008, 48 h.
For another assay, the target named is T2, Envelope glycoprotein (Zaire ebolavirus (strain Mayinga-76) (ZEBOV) (Zaire Ebola virus), UniProt Q05320).
T2 sequence (Q05320 whole entry): T1 sequence (whole entry)
Nature of the assay: Binding affinity to Ebola virus Zaire Mayinga-76 recombinant GP protein by SYPRO orange dye-based fluorescence assay. Set-up: species or system 1976.

For the compound `CN1[C@@H]2CC[C@@H]1CC(OC(c1ccccc1)c1ccccc1)C2` (relative stereo), the ΔTm in assay [1] was -6 °C.
On to `CC(C)COCC(CN(Cc1ccccc1)c1ccccc1)N1CCCC1` (configuration not stated) [BEPRIDIL], for which the pIC50 in the assay on Ebolavirus [2] was 5.49; in the assay with Ebolavirus [3], 5.29. In addition, the thermal shift (ΔTm) in assay [1] is -6 °C. The pKd on Envelope glycoprotein was 3.54.
For the compound `Fc1ccc([C@@H]2CCNC[C@H]2COc2ccc3c(c2)OCO3)cc1` [PAROXETINE], the pIC50 in the assay with Ebolavirus [2] was 5.86; in the assay on Ebolavirus [3], 5.13. Further, the thermal shift (ΔTm) in assay [1] was -4 °C. In addition, on Envelope glycoprotein, the pKd is 3.19.
Take `CN[C@H]1CC[C@@H](c2ccc(Cl)c(Cl)c2)c2ccccc21` [SERTRALINE]: the thermal shift (ΔTm) in assay [1] is -3 °C.
For `CN(C)CCOc1ccc(/C(=C(/CCCl)c2ccccc2)c2ccccc2)cc1` [TOREMIFENE], the pIC50 with Ebolavirus [2] is 7.59; in the assay with Ebolavirus [3], 6.79.

By ΔTm is commonly meant the change in melting temperature against a reference sample. Broadly, the pIC50 is −log10 of the IC50, conventionally taken in molar units. Usually pKd stands for the negative decadic logarithm of the Kd, by convention in mol/L.
